1 molecule from patent US20250313530A1, “SMALL MOLECULE INHIBITORS OF INTERLEUKIN-4 AND USES THEREOF” (Trustees of Boston University, priority 2024, published 2025) can be followed below.

Data set [1] can be described thus: PAMPA membrane permeability. It counts as in vitro ADME. The note with it: 18 hours incubation. The procedure: PVDF membranes purchased from Bioassay Systems PAMPA-096 were coated with 5 μL of 4% Phosphatidylcholine (Lecithin, MP Biomedicals 0210214780) in dodecane. […] Permeability was calculated by Pv=C×ln (1−ODA/ODE) cm/s, where ODA is the absorbance of acceptor solution minus blank, and ODE the absorbance of the equilibrium standard minus blank, and C=7.72×10^−6 using an 18-hour incubation time.
Background: The PAMPA barrier holds no transporters, so it reflects passive diffusion.

Another data set concerns the target IL-13 (Homo sapiens, UniProt P35225). The data set is described as follows: HEK-Blue IL-4/IL-13 reporter assay, IL-13 inhibition. It counts as cell-based. The note with it: soluble IL-13 mediated signaling, HEK Blue IL-4/IL-13 reporter assay. Here is the method:
Prior to screening. […] The solution was added to preincubated cells in a 96-well culture plate. The supernatant was then incubated with Quanti-Blue dye for 3 hours and absorbance was measured at 650 nm. Data was analyzed and plotted using GraphPad Prism 9.2.0.
For orientation: In a reporter assay the amount or activity of a reporter protein is the signal.

For data set [2], the system named is IL-4 induced STAT-6 phosphorylation in Ramos B lymphocytes (type I IL-4 receptor). The data set can be described thus: Ramos STAT-6 phosphorylation assay (western blot). In kind it is cell-based. The procedure: Ramos cells were purchased from ATCC and maintained in RMPI-1640 with 10% heat-inactivated Fetal Bovine Serum. Cells used for assays were between passages 4 and 8. […] Undiluted cell lysates were run SDS-PAGE and transferred to Immunoblot PVDF membrane using Biorad equipment. Membranes were incubated with 1:1000 primary antibody overnight at 4° C. Membranes were then incubated with 1:50,000 dilution secondary for 1 hour at room temperature. Membranes were then exposed to Femto ECL for 5 minutes and imaged using a Bio-Rad Gel Doc. The brightness/contrast was adjusted in FIJI and the area under the curve of each lane was quantified. The phosphorylated STAT-6 to STAT-6 ratio was calculated and normalized to the amount of total STAT-6. The data was plotted and analyzed using GraphPad Prism 9.2.0.
In general terms: A western blot detects proteins with antibodies after separation by electrophoresis.

Chain of IL-13 (P35225 25-146): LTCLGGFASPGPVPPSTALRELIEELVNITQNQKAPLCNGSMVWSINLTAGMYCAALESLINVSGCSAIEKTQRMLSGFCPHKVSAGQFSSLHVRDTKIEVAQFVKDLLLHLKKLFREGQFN

In the case of `N#Cc1c(-c2ccc(O)c(O)c2)cc(-c2ccccc2)[nH]c1=N` [Compound 15, 4-(3,4-dihydroxyphenyl)-2-imino-6-phenyl-1,2-dihydropyridine-3-carbonitrile], the apparent permeability coefficient (Papp) (commonly a coefficient for how fast a substance crosses the barrier) at 18 h, 100 μM in data set [1] is 12.7 ×10⁻⁶ cm/s. It took 4.49 µM to reach a half-maximal effect on IL-13 (EC50). Also, the inhibition – broadly, the drop in the measured response relative to a control, in per cent – at 0.5 µM in data set [2] (Homo sapiens, Ramos, read-out: percent inhibition of STAT-6 phosphorylation) was determined as 61.9%. Moreover, the “inhibition of phosphorylation of STAT-6” value in data set [2] (Ramos B lymphocytes, 50 nM) is “minimum inhibition”.
